This note sets out measurements from patent publication US10081631B2, “2-(1H-indazol-3-yl)-1H-imidazo[4,5-C]pyridine and therapeutic uses thereof” (Samumed, LLC, priority 2014, dated 2018).

Each structure is given as a SMILES string.

The test system of the test is Wnt activity (Sp5-Luc reporter, SW480 colon carcinoma cells). The test is described as follows: Screening assay for Wnt activity: Sp5-Luc reporter gene assay in SW480 cells. It counts as cell-based. As to conditions: Homo sapiens, 42 h incubation, luminescence. From the text:
The screening assay for Wnt activity is described as follows. Reporter cell lines can be generated by stably transducing cancer cell lines (e.g., colon cancer) or primary cells (e.g., IEC-6 intestinal cells) with a lentiviral construct that includes a Wnt-responsive promoter driving expression of the firefly luciferase gene.
SW480 colon carcinoma cells were transduced with a lentiviral vector expressing luciferase with a human Sp5 promoter consisting of a sequence of eight TCF/LEF binding sites. SW480 cells stably expressing the Sp5-Luc reporter gene and a hygromycin resistance gene were selected by treatment with 150 μg/ml of hygromycin for 7 days. These stably transduced SW480 cells were expanded in cell culture and used for all further screening activities. For Sp5-Luc reporter gene assays, the cells were plated at 10,000 cells/well in 96-well plates with growth medium containing 10% fetal calf serum and incubated overnight at 37° C. and 5% CO2. Each compound was dissolved in DMSO as a 10 mM stock in standard j-vials and used to prepare compound source plates in dose-response format with 3-fold serial dilutions and a 10 mM top concentration. Compound transfer from serially diluted source plates to assay plates containing the cells was accomplished using a pintool (Multimek 96, Beckman equipped with V&P Scientific FP1S50H pins) based liquid handling protocol. This protocol used a slotted pin to transfer 50 nl of compound from a source plate well to an assay plate well containing 50 μl of cells in growth medium. […] Control wells received 50 nl of DMSO treatment for normalization and calculating IC50 values. The treated cells were incubated at 37° C. and 5% CO2 for an additional forty-two hours. Following incubation, the growth medium was removed and 50 μl of BrightGlo luminescence reagent (Promega) was added to each well of the 96-well assay plates. The plates were placed on an orbital shaker for 5 min and then luminescence was quantified on the Victor3 (Perkin Elmer) plate reader. Readings were normalized to DMSO only treated cells, and normalized activities were utilized for IC50 calculations using the dose-response log (inhibitor) vs. response-variable slope (four parameters) nonlinear regression feature available in GraphPad Prism 5.0 or 6.0.
Broadly, the IC50 is the concentration that gives 50% inhibition. Read a low IC50 as greater potency in that assay. `CN(C)Cc1cncc(-c2ccc3[nH]nc(-c4nc5c(-c6cc(F)cc(CNS(C)(=O)=O)c6)nccc5[nH]4)c3c2F)c1` [Compound 1729, N-(3-(2-(5-(5-((Dimethylamino)methyl)pyridin-3-yl)-4-fluoro-1H-indazol-3-yl)-1H-imidazo[4,5-c]pyridin-4-yl)-5-fluorobenzyl)methanesulfonamide]: the IC50 was found to be 1100 nM.
With `CN(C)Cc1cncc(-c2ccc3[nH]nc(-c4nc5c(-c6cccc(F)c6)nccc5[nH]4)c3c2F)c1` [Compound 1339, 1-(5-(4-Fluoro-3-(4-(3-fluorophenyl)-1H-imidazo[4,5-c]pyridin-2-yl)-1H-indazol-5-yl)pyridin-3-yl)-N,N-dimethylmethanamine] the figure was 1180 nM; with `Fc1cncc(-c2ccc3[nH]nc(-c4nc5c(N6CCC(F)(F)CC6)nccc5[nH]4)c3c2)c1` [Compound 2277, 4-(4,4-Difluoropiperidin-1-yl)-2-(5-(5-fluoropyridin-3-yl)-1H-indazol-3-yl)-1H-imidazo[4,5-c]pyridine], 315 nM; with `c1cncc(-c2ccc3[nH]nc(-c4nc5c(N6CCOCC6)nccc5[nH]4)c3c2)c1` [Compound 2272, 4-(2-(5-(Pyridin-3-yl)-1H-indazol-3-yl)-1H-imidazo[4,5-c]pyridin-4-yl) morpholine], 20 nM.
With `O=C(CC1CCCCC1)Nc1cncc(-c2ccc3[nH]nc(-c4nc5c(-c6cccc(F)c6)nccc5[nH]4)c3c2)c1` [Compound 1783, 2-Cyclohexyl-N-(5-(3-(4-(3-fluorophenyl)-1H-imidazo[4,5-c]pyridin-2-yl)-1H-indazol-5-yl)pyridin-3-yl)acetamide] the figure was 505 nM; with `Fc1cccc(-c2nccc3[nH]c(-c4n[nH]c5ccc(-c6cncc(OCCN7CCCC7)c6)cc45)nc23)c1` [Compound 1778, 4-(3-Fluorophenyl)-2-(5-(5-(2-(pyrrolidin-1-yl)ethoxy)pyridin-3-yl)-1H-indazol-3-yl)-1H-imidazo[4,5-c]pyridine], 280 nM; with `COc1cc(F)cc(-c2nccc3[nH]c(-c4n[nH]c5ccc(-c6cncc(NC(=O)CC(C)C)c6)cc45)nc23)c1` [Compound 2208, N-(5-(3-(4-(3-Fluoro-5-methoxyphenyl)-1H-imidazo[4,5-c]pyridin-2-yl)-1H-indazol-5-yl)pyridin-3-yl)-3-methylbutanamide], 20 nM.
With `CC(C)CC(=O)Nc1cncc(-c2ccc3[nH]nc(-c4nc5c(-c6cc(F)cc(OCCN(C)C)c6)nccc5[nH]4)c3c2)c1` [Compound 2076, N-(5-(3-(4-(3-(2-(Dimethylamino)ethoxy)-5-fluorophenyl)-1H-imidazo[4,5-c]pyridin-2-yl)-1H-indazol-5-yl)pyridin-3-yl)-3-methylbutanamide] the figure was 370 nM; with `CN(C)Cc1cncc(-c2cc(F)c3[nH]nc(-c4nc5c(-c6ccsc6)nccc5[nH]4)c3c2)c1` [Compound 688, 1-(5-(7-Fluoro-3-(4-(thiophen-3-yl)-1H-imidazo[4,5-c]pyridin-2-yl)-1H-indazol-5-yl)pyridin-3-yl)-N,N-dimethylmethanamine], 415 nM; with `CN1CCN(c2nccc3[nH]c(-c4n[nH]c5ccc(-c6cncc(N)c6)cc45)nc23)CC1` [Compound 211, 5-(3-(4-(4-Methylpiperazin-1-yl)-1H-imidazo[4,5-c]pyridin-2-yl)-1H-indazol-5-yl)pyridin-3-amine], 97.1 nM.
As for `Cn1cc(-c2ccc3[nH]nc(-c4nc5c(N6CCC(F)(F)CC6)nccc5[nH]4)c3c2)cn1` [Compound 2281, 4-(4,4-Difluoropiperidin-1-yl)-2-(5-(1-methyl-1H-pyrazol-4-yl)-1H-indazol-3-yl)-1H-imidazo[4,5-c]pyridine], the IC50 stood at 20 nM.
With `O=C(Nc1cncc(-c2ccc3[nH]nc(-c4nc5c(-c6ccccn6)nccc5[nH]4)c3c2)c1)c1ccccc1` [Compound 141, N-(5-(3-(4-(Pyridin-2-yl)-1H-imidazo[4,5-c]pyridin-2-yl)-1H-indazol-5-yl)pyridin-3-yl)benzamide] the figure was greater than 10000 nM.
